# Numbered stars: 1 amine (or outer) side, 2 acyl side, 3 side chain; on linkers, the order of the positions; unused ones are H or OH. Square brackets hold non-standard residues; d marks the D form. Peptide text beside a SMILES is read from it. * marks the point of attachment. Phe(4-CH2SO3H) = N[C@@H](Cc1ccc(CS(=O)(=O)O)cc1)C(=O)O; C18 diacid = O=C(O)CCCCCCCCCCCCCCCCC(=O)*; γGlu = O=C(O)[C@H](CCC(=O)[*:2])N[*:1]; NMeF = CN[C@@H](Cc1ccccc1)C(=O)O; dNMeD = CN[C@H](CC(=O)O)C(=O)O; Nle = CCCC[C@H](N)C(=O)O; AEEA = NCCOCCOCC(=O)O
# Experiments:
# [1] = Chemical stability of the compound in sodium phosphate buffer assessed as loss of purity 0.5 mM at pH 7.4 at 37 degC after 1 week by UHLPC-UV analysis; assay type: physicochemical; conditions: read-out: Drug degradation
# [2] = Chemical stability of the compound in sodium phosphate buffer assessed as purity 0.5 mM at pH 2.2 at 37 degC after 1 week by UHLPC-UV analysis; assay type: physicochemical; conditions: read-out: Stability
# [3] = Chemical stability of the compound in sodium phosphate buffer assessed as loss of purity 1 mM at pH 7.4 at 37 degC after 2 weeks by UHLPC-UV analysis; assay type: physicochemical; conditions: read-out: Drug degradation
# [4] = Toxicity in lean Landrace Yorkshire Duroc pig at 30 nmol/kg, sc measured up to 96 hrs post dose; assay type: organism-based, Sus scrofa; conditions: in vivo
# Sus scrofa [5] = test: Anti-obesity activity in lean Landrace Yorkshire Duroc pig assessed as food intake at 30 nmol/kg, sc measured up to 24 hrs post dose (reference value: 1.8 to 2.1 kg); assay type: functional
# albumin = albumin (Homo sapiens, UniProt P02768); test: Binding affinity to human serum albumin at 500 nM after 2 hrs by LC-MS analysis; assay type: ADME; conditions: read-out: PB (converted)
# Sequence of albumin (P02768 whole entry): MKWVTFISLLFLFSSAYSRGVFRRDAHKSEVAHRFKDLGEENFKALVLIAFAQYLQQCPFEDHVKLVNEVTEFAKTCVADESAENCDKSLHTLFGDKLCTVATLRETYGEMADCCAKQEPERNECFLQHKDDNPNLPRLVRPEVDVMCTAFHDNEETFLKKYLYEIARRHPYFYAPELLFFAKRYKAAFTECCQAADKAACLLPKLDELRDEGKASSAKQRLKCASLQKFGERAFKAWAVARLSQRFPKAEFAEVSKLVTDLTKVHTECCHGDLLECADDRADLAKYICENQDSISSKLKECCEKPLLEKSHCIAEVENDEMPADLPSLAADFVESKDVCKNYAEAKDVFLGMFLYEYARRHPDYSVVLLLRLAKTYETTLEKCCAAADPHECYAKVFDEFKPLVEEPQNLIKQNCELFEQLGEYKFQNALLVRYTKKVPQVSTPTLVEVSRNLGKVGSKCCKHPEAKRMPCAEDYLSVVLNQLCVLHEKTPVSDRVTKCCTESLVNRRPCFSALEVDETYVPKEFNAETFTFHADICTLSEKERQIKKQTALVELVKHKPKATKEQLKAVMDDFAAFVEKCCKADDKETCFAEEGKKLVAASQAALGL
# [6] = molecular target: T1, Cholecystokinin receptor type A (Homo sapiens, UniProt P32238); test: Displacement of [125I]-CCK-8 from human CCK1R expressed in human 1321N1 cell membranes after 2 hrs by SPA assay
# T1 sequence (P32238 whole entry): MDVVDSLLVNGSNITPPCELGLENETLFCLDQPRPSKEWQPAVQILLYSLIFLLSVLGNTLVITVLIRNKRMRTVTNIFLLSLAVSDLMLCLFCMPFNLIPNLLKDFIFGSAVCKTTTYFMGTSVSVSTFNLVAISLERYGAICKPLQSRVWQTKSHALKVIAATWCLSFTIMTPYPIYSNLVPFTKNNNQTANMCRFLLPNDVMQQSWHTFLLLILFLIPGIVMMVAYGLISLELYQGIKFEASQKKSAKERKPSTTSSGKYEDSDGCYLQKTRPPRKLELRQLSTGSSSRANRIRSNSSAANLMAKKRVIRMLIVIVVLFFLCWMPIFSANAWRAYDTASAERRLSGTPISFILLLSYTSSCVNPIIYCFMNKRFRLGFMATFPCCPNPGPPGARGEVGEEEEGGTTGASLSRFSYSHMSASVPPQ
# Sus scrofa [7] = test: Anti-obesity activity in lean Landrace Yorkshire Duroc pig assessed as food intake at 30 nmol/kg, sc measured at 72 to 96 hrs post dose (reference value: 1.8 to 2.1 kg); assay type: functional
# [8] = Protein binding in Ellegaard Gottingen minipig plasma at 500 nM after 2 hrs by LC-MS analysis; assay type: ADME, cell-free, Sus scrofa; conditions: pig, read-out: PPB (converted)
# [9] = Drug metabolism in Ellegaard Gottingen minipig plasma assessed as C18d-gammaGlu-(OEG)2-Asp-Phe(4sm)-Nle-Gly-OH peptide metabolite formation at 5 nmol/kg, iv administered as single dose by LC-MS/MS analysis; assay type: ADME, organism-based, Sus scrofa; conditions: pig, in vivo
# [10] = Drug metabolism in Ellegaard Gottingen minipig plasma assessed as C18d-gammaGlu-(OEG)2-Asp-Phe(4sm)-Nle-Gly-Trp-Nle-DMeAspOH peptide metabolite formation at 5 nmol/kg, iv administered as single dose by LC-MS/MS analysis; assay type: ADME, organism-based, Sus scrofa; conditions: pig, in vivo
# [11] = Drug metabolism in sodium phosphate buffer assessed as (2R,5S,8S,14S,17S,21S,44S)-8-((1H-indol-3-yl)methyl)-2-(((S)-1-amino-1-oxo-3-phenylpropan-2-yl)(methyl)carbamoyl)-5,14-dibutyl-3-methyl-4,7,10,13,16,19,23,32,41,46-decaoxo-17-(4-(sulfomethyl)benzyl)-25,28,34,37-tetraoxa-3,6,9,12,15,18,22,31,40,45-decaazadohexacontane-1,21,44,62-tetracarboxylic acid formation at 1 mM at pH 7.4 at 37 degC after 1 to 2 weeks by UHLPC-UV analysis
# Sus scrofa [12] = test: Anti-obesity activity in lean Landrace Yorkshire Duroc pig assessed as food intake at 30 nmol/kg, sc measured at 24 to 48 hrs post dose (reference value: 1.8 to 2.1 kg); assay type: functional
# Sus scrofa [13] = test: Anti-obesity activity in lean Landrace Yorkshire Duroc pig assessed as food intake at 30 nmol/kg, sc measured at 48 to 72 hrs post dose (reference value: 1.8 to 2.1 kg); assay type: functional
# [14] = Drug metabolism in Ellegaard Gottingen minipig plasma assessed as C18d-gammaGlu-(OEG)2-Asp-Phe(4sm)-OH peptide metabolite formation at 5 nmol/kg, iv administered as single dose by LC-MS/MS analysis; assay type: ADME, organism-based, Sus scrofa; conditions: pig, in vivo
# [15] = Plasma concentration in lean Landrace Yorkshire Duroc pig at 30 nmol/kg, sc measured after 96 hrs post dose; assay type: ADME, organism-based, Sus scrofa
# [16] = Chemical stability of the compound in sodium phosphate buffer assessed as loss of purity 1 mM at pH 7.4 at 37 degC after 1 week by UHLPC-UV analysis; assay type: physicochemical; conditions: read-out: Drug degradation
# [17] = molecular target: T1, Cholecystokinin receptor type A; test: Agonist activity at human CCK1R expressed in human 1321N1 cells assessed as IP1 accumulation after 1 hr by HTRF assay; assay type: functional, cell-based
SMILES,"degraded at 168 h, 500 µM [1] [%]","remaining at 168 h, 500 µM [2] [%]","degraded at 336 h, 1000 µM [3] [%]",Activity [4],Activity (Sus scrofa [5]) [kg],"fraction unbound at 2 h, 0.5 µM (albumin)",IC50 [6] [nM],Activity (Sus scrofa [7]) [kg],"fraction unbound at 2 h, 0.5 µM [8]",Drug metabolism [9],Drug metabolism [10],Drug metabolism [11],Activity (Sus scrofa [12]) [kg],Activity (Sus scrofa [13]) [kg],Drug metabolism [14],concentration at 96 h [15] [nM],"degraded at 168 h, 1000 µM [16] [%]",EC50 [17] [nM]
CCCC[C@H](NC(=O)[C@H](Cc1ccc(OS(=O)(=O)O)cc1)NC(=O)[C@H](CC(=O)O)NC(=O)COCCOCCNC(=O)COCCOCCNC(=O)CC[C@H](NC(=O)CCCCCCCCCCCCCCCCC(=O)O)C(=O)O)C(=O)NCC(=O)N[C@@H](Cc1c[nH]c2ccccc12)C(=O)N[C@@H](CCCC)C(=O)N[C@@H](CC(=O)O)C(=O)N[C@@H](Cc1ccccc1)C(N)=O,0.8,22,,,,,,,,,,,,,,,,
CCCC[C@H](NC(=O)[C@H](Cc1ccc(CS(=O)(=O)O)cc1)NC(=O)[C@H](CC(=O)O)NC(=O)COCCOCCNC(=O)COCCOCCNC(=O)CC[C@H](NC(=O)CCCCCCCCCCCCCCCCC(=O)O)C(=O)O)C(=O)NCC(=O)N[C@@H](Cc1c[nH]c2ccccc12)C(=O)N[C@@H](CCCC)C(=O)N(C)[C@H](CC(=O)O)C(=O)N(C)[C@@H](Cc1ccccc1)C(N)=O ({C18 diacid-γGlu-AEEA-AEEA}-D[Phe(4-CH2SO3H)][Nle]GW[Nle][dNMeD][NMeF]-NH2),,,2.2,Non-Toxic,1,0.003,0.0525,1.9,0.003,Metabolite_Detected,Metabolite_Detected,Metabolite detected,1.1,1.5,Metabolite_Detected,84.9,1.3,0.251

# Reference: ChEMBL document CHEMBL4368907 (J Med Chem, 2019)
